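Assay format: 96-well plates, 48-hour exposure. GI50 = concentration required for 50% inhibition of growth. TGI: concentration producing complete growth inhibition.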 Bounds are passed on as bounds.

Among the test systems are MDA-MB-231 breast; SK-MEL-5 melanoma; SN12C renal; SK-MEL-2 melanoma; OVCAR-3 ovarian; SF-268 CNS; SK-MEL-28 melanoma; 786-0 renal; SW-620 colon; LOX IMVI melanoma.
Common to all, as to assay: growth of human tumour cells (NCI), 48 h

For `FC(F)(F)c1cc(NC(=S)N2c3ccccc3-n3cccc3C2c2cccnc2)cc(C(F)(F)F)c1` (stereo unspecified), the GI50 in the assay on MDA-MB-231 breast is 8.39 µM; in the assay on SK-MEL-5 melanoma it was 11.6 µM; in the assay with SN12C renal, 12.1 µM; in the assay with SK-MEL-2 melanoma it was 12.7 µM; with OVCAR-3 ovarian it was 3.01 µM; in the assay with SF-268 CNS, 9.91 µM. The GI50 was 15.7 µM with SK-MEL-28 melanoma, 5.31 µM in the assay on 786-0 renal and 4.31 µM with SW-620 colon. Moreover, the TGI turned out to be 31.1 µM with MDA-MB-231 breast; 23.9 µM in the assay with SK-MEL-5 melanoma; 35.9 µM in the assay on SN12C renal; 31.6 µM in the assay on SK-MEL-2 melanoma; 9.47 µM in the assay with OVCAR-3 ovarian; 28.5 µM in the assay with SF-268 CNS. Further, the TGI in the assay with SK-MEL-28 melanoma worked out at 37.1 µM; with 786-0 renal, 18.7 µM; in the assay with SW-620 colon, 19.6 µM.

On to `O=C1c2cc3c(cc2-c2c1c1ccc(F)cc1c(=O)n2C[C@H](O)[C@H](O)[C@H](O)CO)OCO3`, for which the GI50 in the assay with MDA-MB-231 breast is 0.342 µM; in the assay on SK-MEL-5 melanoma, 0.141 µM; in the assay with SN12C renal, 0.19 µM; in the assay on SK-MEL-2 melanoma, 0.233 µM; in the assay on OVCAR-3 ovarian, 0.167 µM; in the assay on SF-268 CNS, 0.0704 µM. For the same molecule, the GI50 is 0.282 µM in the assay on SK-MEL-28 melanoma, 0.209 µM with 786-0 renal and 0.0967 µM in the assay with SW-620 colon. The TGI in the assay on MDA-MB-231 breast was found to be 6.18 µM; in the assay on SK-MEL-5 melanoma, 0.277 µM; with SN12C renal, 0.792 µM; in the assay with SK-MEL-2 melanoma, 0.596 µM; in the assay on OVCAR-3 ovarian, 0.431 µM; with SF-268 CNS, 2.97 µM. The TGI was 1.51 µM in the assay on SK-MEL-28 melanoma, 21.6 µM with 786-0 renal and > 100 µM in the assay on SW-620 colon.

Turning to `O=C(Nc1ccccc1Cl)c1ccc(NC2=C(Cl)C(=O)N(C3CCCCC3)C2=O)cc1`, the GI50 in the assay with MDA-MB-231 breast is 13.7 µM; in the assay on SK-MEL-5 melanoma, 11.5 µM; in the assay with SK-MEL-2 melanoma it was 16.7 µM; with OVCAR-3 ovarian it was 9.25 µM; in the assay with SF-268 CNS, 20.2 µM; in the assay with SK-MEL-28 melanoma, 17.6 µM. The GI50 in the assay with 786-0 renal was 9.64 µM; with SW-620 colon, 10.3 µM; with LOX IMVI melanoma it was 1.68 µM. The TGI was 33.3 µM in the assay on MDA-MB-231 breast; 40.3 µM in the assay with SK-MEL-5 melanoma; 44.1 µM in the assay with SK-MEL-2 melanoma; 28.4 µM in the assay with OVCAR-3 ovarian; 52.9 µM with SF-268 CNS; 49.6 µM in the assay on SK-MEL-28 melanoma. The TGI in the assay on 786-0 renal turned out to be 30.2 µM; with SW-620 colon it was 30.2 µM; in the assay with LOX IMVI melanoma, 20.9 µM.

Turning to `COc1ccc(C2=NN(C(C)=O)C(c3ccc(Oc4ccnc5cc(Cl)ccc45)c(OC)c3)C2)cc1` (stereo unspecified), the GI50 with MDA-MB-231 breast is 7.52 µM; in the assay with SK-MEL-5 melanoma, > 100 µM; in the assay with SN12C renal it was > 100 µM; with SK-MEL-2 melanoma it was 7.13 µM; with OVCAR-3 ovarian, 5.4 µM; in the assay on SF-268 CNS, 9.28 µM. The values for the GI50 with 786-0 renal and in the assay with SW-620 colon were 4.52 µM and > 100 µM, respectively. Besides, the TGI in the assay on MDA-MB-231 breast is > 100 µM; in the assay on SK-MEL-5 melanoma, > 100 µM; with SN12C renal, > 100 µM; with SK-MEL-2 melanoma, 26.7 µM; in the assay with OVCAR-3 ovarian, > 100 µM; with SF-268 CNS, > 100 µM. Besides, the TGI is 26.8 µM in the assay with 786-0 renal and > 100 µM with SW-620 colon.

Consider `OCCN(CCO)c1nc(N2CCCCC2)c2nc(N(CCO)CCO)nc(N3CCCCC3)c2n1`, for which the TGI in the assay on MDA-MB-231 breast is > 100 µM; in the assay on SK-MEL-5 melanoma, 41.8 µM; with SN12C renal, > 100 µM; in the assay with SK-MEL-2 melanoma, > 100 µM; in the assay with OVCAR-3 ovarian, 32.6 µM; in the assay with SK-MEL-28 melanoma it was > 100 µM. The TGI in the assay on 786-0 renal, in the assay on SW-620 colon and in the assay on LOX IMVI melanoma was > 100 µM each time.

`C1C[OH+]CCNCC[OH+]CC[OH+]CCN1.N.[Cl-].[Pt+4]`: the GI50 in the assay on SK-MEL-5 melanoma is 35.5 µM; in the assay with SN12C renal, > 100 µM; in the assay with SK-MEL-2 melanoma, 47.2 µM; in the assay with OVCAR-3 ovarian, 89.1 µM; with SF-268 CNS it was > 100 µM; in the assay with SK-MEL-28 melanoma, 49.5 µM. In addition, the GI50 in the assay with 786-0 renal was > 100 µM; in the assay with SW-620 colon, 67.7 µM; in the assay on LOX IMVI melanoma, 33.2 µM. Also, the TGI with SK-MEL-5 melanoma, with SN12C renal, in the assay with SK-MEL-2 melanoma, with OVCAR-3 ovarian, in the assay with SF-268 CNS and in the assay with SK-MEL-28 melanoma was > 100 µM each time. Moreover, the TGI with 786-0 renal, in the assay with SW-620 colon and with LOX IMVI melanoma was > 100 µM each time.

Consider `CC[O-].CC[O-].O=C([CH-]C(=O)c1ccccc1)CCCCCCC(=O)[CH-]C(=O)c1ccccc1.[Ti+4]`, for which the GI50 with SK-MEL-5 melanoma, with SN12C renal, with SK-MEL-2 melanoma, with OVCAR-3 ovarian, with SF-268 CNS and with SK-MEL-28 melanoma was > 100 µM in each case. Also, the GI50 with 786-0 renal, with SW-620 colon and with LOX IMVI melanoma was > 100 µM throughout. For the same molecule, the TGI in the assay with SK-MEL-5 melanoma, with SN12C renal, in the assay on SK-MEL-2 melanoma, in the assay on OVCAR-3 ovarian, in the assay with SF-268 CNS and with SK-MEL-28 melanoma was > 100 µM each time. Moreover, the TGI with 786-0 renal, with SW-620 colon and in the assay with LOX IMVI melanoma was > 100 µM in each case.

As for `NNc1nc2ccccc2o1`, the TGI with MDA-MB-231 breast, in the assay on SK-MEL-5 melanoma, in the assay on SN12C renal, in the assay on SK-MEL-2 melanoma, in the assay with SF-268 CNS and in the assay on SK-MEL-28 melanoma was > 100 µM each time. The TGI with 786-0 renal, in the assay with SW-620 colon and with LOX IMVI melanoma was > 100 µM each time.

For the molecule `O=C1NC2(CCCC2)C2CCCCC12O` (stereo unspecified), the TGI in the assay on SK-MEL-5 melanoma, in the assay on SN12C renal, with SK-MEL-2 melanoma, in the assay with OVCAR-3 ovarian, in the assay with SF-268 CNS and in the assay with SK-MEL-28 melanoma was > 100 µM each time. Besides, the TGI in the assay with 786-0 renal, with SW-620 colon and with LOX IMVI melanoma was > 100 µM each time.

For the molecule `CCN(CC)CCCNc1n[n+]([O-])c2ccccc2[n+]1[O-]`, the TGI was 31.4 µM in the assay on MDA-MB-231 breast; 3.54 µM in the assay with SK-MEL-5 melanoma; 27.9 µM in the assay on SN12C renal; 21.5 µM in the assay with SK-MEL-2 melanoma; > 100 µM with SF-268 CNS; > 100 µM in the assay on SK-MEL-28 melanoma. For the same molecule, the figures for the TGI in the assay on 786-0 renal and with SW-620 colon were 33.4 µM and > 100 µM, respectively.
